Test results taken from patent US11464749B2, “Bismuth-thiol compositions and methods of use” (Microbion Corporation, priority 2018, dated 2022).
Values after ≈ are worked out from the molar mass of the structure shown.

How the values were obtained:
[1] = tested on: Pseudomonas aeruginosa strain PA01; assay: Bacterial killing curves with and without CF patient sputum
Klebsiella pneumoniae = assay: Broth microdilution MIC (Example 12)
Escherichia coli = assay: Broth microdilution MIC (Example 12)
B. cenocepacia = assay: FIC checkerboard assay; type: cell-based; conditions: during FIC testing
B. cepacia = assay: FIC checkerboard assay; type: cell-based; conditions: during FIC testing
Acinetobacter baumannii = assay: Broth microdilution MIC (Example 12)
P. aeruginosa = assay: FIC checkerboard assay; type: cell-based; conditions: during FIC testing

C1C[S][Bi]([S]CC[S][Bi]2[S]CC[S]2)[S]1 [BisEDT, bismuth-1,2-ethanedithiol]
bactericidal activity against PA01 ([1]; 0.1 μg/mL): not bactericidal
effect of CF patient sputum on bactericidal activity ([1]; 10% CF patient sputum): partially inhibited

C[C@@H](O)[C@H]1C(=O)N2C(C(=O)O)=C(S[C@@H]3CN[C@H](C(=O)N(C)C)C3)[C@H](C)[C@H]12 [MEM]
MIC (Klebsiella pneumoniae; K. pneumoniae ATCC BAA-1705, ESBL/KPC): 8 µg/mL (≈ 20.9 µM)
MIC (Klebsiella pneumoniae; K. pneumoniae CDC 112, KPC): >8 µg/mL
MIC (Klebsiella pneumoniae; K. pneumoniae CDC 113, ESBL/KPC): >8 µg/mL
MIC (Klebsiella pneumoniae; K. pneumoniae CDC 115, ESBL/KPC): >8 µg/mL
MIC (Klebsiella pneumoniae; K. pneumoniae CDC 120, ESBL/KPC): >8 µg/mL
MIC (Klebsiella pneumoniae; K. pneumoniae CDC 126, ESBL/KPC): 4 µg/mL (≈ 10.4 µM)
MIC (Klebsiella pneumoniae; K. pneumoniae CDC 129, ESBL/KPC): 8 µg/mL (≈ 20.9 µM)
MIC (Klebsiella pneumoniae; K. pneumoniae CDC 135, ESBL/VIM): 1 µg/mL (≈ 2.61 µM)
MIC (Klebsiella pneumoniae; K. pneumoniae CDC 138, ESBL/NDM): >8 µg/mL
MIC (Klebsiella pneumoniae; K. pneumoniae CDC 158, ESBL/NDM/OXA): >8 µg/mL
MIC (Klebsiella pneumoniae; K. pneumoniae MMX 9029, ESBL): 0.015 µg/mL (≈ 0.0391 µM)
MIC (Escherichia coli; E. coli ATCC 35218, ESBL): ≤0.008 µg/mL
MIC (Escherichia coli; E. coli ATCC BAA-2471, NDM): >8 µg/mL
MIC (Escherichia coli; E. coli CDC 114, ESBL/KPC): 2 µg/mL (≈ 5.22 µM)
MIC (Escherichia coli; E. coli CDC 118, ESBL/NDM): 0.06 µg/mL (≈ 0.156 µM)
MIC (Escherichia coli; E. coli CDC 435, NDM): >8 µg/mL
MIC (Escherichia coli; E. coli CDC 451, KPC): 1 µg/mL (≈ 2.61 µM)
MIC (Escherichia coli; E. coli CDC 503, ESBL/NDM): 8 µg/mL (≈ 20.9 µM)
MIC (Escherichia coli; E. coli MMX 5745, KPC): 2 µg/mL (≈ 5.22 µM)
MIC (Escherichia coli; E. coli MMX 5755, ESBL): 0.015 µg/mL (≈ 0.0391 µM)
MIC (Escherichia coli; E. coli MMX 5756, ESBL): ≤0.008 µg/mL
MIC (Escherichia coli; E. coli MMX 5758, ESBL): ≤0.008 µg/mL
MIC (B. cenocepacia; B. cenocepacia isolate 0548 (CIP-R)): 4 µg/mL
MIC (B. cenocepacia; B. cenocepacia isolate 0813 (CIP-I)): 2 µg/mL
MIC (B. cepacia; B. cepacia isolate 0546): 4 µg/mL
MIC (B. cepacia; B. cepacia isolate 1793): 4 µg/mL
MIC (Acinetobacter baumannii; A. baumannii CDC 273, ESBL/OXA): >8 µg/mL
MIC (Acinetobacter baumannii; A. baumannii CDC 274, ESBL/OXA): >8 µg/mL
MIC (Acinetobacter baumannii; A. baumannii CDC 275, ESBL/OXA): >8 µg/mL
MIC (Acinetobacter baumannii; A. baumannii CDC 277, ESBL/OXA): >8 µg/mL
MIC (Acinetobacter baumannii; A. baumannii CDC 284, ESBL/OXA): >8 µg/mL
MIC (Acinetobacter baumannii; A. baumannii CDC 307, OXA): 8 µg/mL (≈ 20.9 µM)
MIC (Acinetobacter baumannii; A. baumannii CDC 308, ESBL/OXA): 8 µg/mL (≈ 20.9 µM)
MIC (Acinetobacter baumannii; A. baumannii CDC 311, OXA): >8 µg/mL
MIC (Acinetobacter baumannii; A. baumannii CDC 312, OXA): 4 µg/mL (≈ 10.4 µM)
MIC (Acinetobacter baumannii; A. baumannii CDC 313, ESBL/OXA): >8 µg/mL
MIC (Acinetobacter baumannii; A. baumannii NCTC 13304, OXA): >8 µg/mL
MIC (P. aeruginosa; P. aeruginosa isolate 103 (ATCC 25922), each agent tested alone, one replicate, for QC): 1 µg/mL
MIC (P. aeruginosa; P. aeruginosa isolate 6322 (MEM-R, TOB-R, AMK-R, CIP-R, AZT-R)): 16 µg/mL
MIC (P. aeruginosa; P. aeruginosa isolate 6977 (MEM-I, TOB-R, CIP-R, AZT-I)): 8 µg/mL
MIC (P. aeruginosa; P. aeruginosa isolate 7745 (MEM-R, CIP-R, AZT-R)): 16 µg/mL
MIC (P. aeruginosa; P. aeruginosa isolate 8798 (MEM-R, TOB-R, AMK-R, CIP-R, AZT-R, COL-R)): 32 µg/mL
MIC (P. aeruginosa; P. aeruginosa isolate 9108 (CIP-R, AZT-I)): 1 µg/mL
